From US9073941B2, “Compounds and methods for treating tuberculosis infection” (Academia Sinica, priority 2010, dated 2015)

biological target: Mtb PDH (Lpd+DlaT+AceE) (Mycobacterium tuberculosis (strain ATCC 25618 / H37Rv), UniProt P9WHH9); assay: PDH Inhibition Activity; type: biochemical; details: concentration required for 50% inhibition of PDH activity; fluorescence ex 360 nm / em 460 nm; read-out: PDH IC50

Row | Compound | IC50 [nM]
1 | Nc1c(Br)cc(Br)c2nsnc12 [Compound 202] | 1690

biological target: lipoamide dehydrogenase (Lpd) (Mycobacterium tuberculosis (strain ATCC 25618 / H37Rv), UniProt P9WHH9); assay: Lipoamide Dehydrogenase (Lpd) Inhibition Assay; type: biochemical; details: not given

Row | Compound | IC50 [nM]
2 | Cc1ccc(NC(=O)C2CCN(S(=O)(=O)c3cn(C(C)C)cn3)CC2)cc1F [Compound 532] | 2850 ± 510
3 | CC(C)n1cnc(S(=O)(=O)N2CCC(C(=O)Nc3ccc4c(c3)OCO4)CC2)c1 [Compound 530] | 2070 ± 710
4 | CCc1ccc(NC(=O)C2CCN(S(=O)(=O)c3cn(CC)cn3)CC2)cc1 [Compound 539] | 4300 ± 1660
5 | CC(C)n1cnc(S(=O)(=O)N2CCC(C(=O)NCc3ccccc3)CC2)c1 [Compound 536] | 2690 ± 800
6 | CCOc1ccc(NC(=O)C2CCN(S(=O)(=O)c3cn(CC)cn3)CC2)cc1 [Compound 543] | 3970 ± 1130
7 | CC(C)n1cnc(S(=O)(=O)N2CCC(C(=O)NCc3cccs3)CC2)c1 [Compound 549] | 3420 ± 1330
8 | COc1cc(OC)c(NC(=O)C2CCN(S(=O)(=O)c3cn(C(C)C)cn3)CC2)cc1Cl [Compound 546] | 2850 ± 780
9 | CN(CC(=O)Nc1ccc(F)cc1)S(=O)(=O)c1cc(Br)cnc1N [Compound 504] | 4300 ± 1210
10 | COc1ccc(NC(=O)CN(C)S(=O)(=O)c2cc(Br)cnc2N)cc1Cl [Compound 503] | 700 ± 80
11 | CC(C)c1ccc(NC(=O)C2CCN(S(=O)(=O)c3cn(C(C)C)cn3)CC2)cc1 [Compound 509] | 2870 ± 520
12 | COc1cc(Cl)c(NC(=O)C2CCN(S(=O)(=O)c3cn(C(C)C)cn3)CC2)c(OC)c1 [Compound 552] | 2870 ± 670
13 | CCOc1ccc(NC(=O)C2CCN(S(=O)(=O)c3cn(C(C)C)cn3)CC2)cc1 [Compound 520] | 2170 ± 370
14 | Cc1cccc(CNC(=O)C2CCN(S(=O)(=O)c3cn(C(C)C)cn3)CC2)c1 [Compound 540] | 4180 ± 1090
15 | CN(C(=O)c1ccc2c(c1)OCCO2)c1nc2c(s1)CCc1c-2cnn1C [Compound 1106] | 2670 ± 230
16 | CC(C)n1cnc(S(=O)(=O)N2CCC(C(=O)NCc3ccc(F)cc3)CC2)c1 [Compound 557] | 3550 ± 1170

same assay, conditions: concentration required for 50% inhibition of LPD activity; DTNB detection, OD405 nm

Row | Compound | IC50 [nM]
17 | COc1cccc(NC(=O)C2CCN(S(=O)(=O)c3cn(C(C)C)cn3)CC2)c1 [Compound 516] | 2460 ± 760
18 | Cc1cccc(NC(=O)C2CCN(S(=O)(=O)c3cn(C(C)C)cn3)CC2)c1 [Compound 508] | 2610 ± 820
19 | Cc1cc(C)cc(NC(=O)C2CCN(S(=O)(=O)c3cn(C(C)C)cn3)CC2)c1 [Compound 514] | 2670 ± 570
20 | CC(C)n1cnc(S(=O)(=O)N2CCC(C(=O)NCCCc3ccccc3)CC2)c1 [Compound 547] | 2670 ± 600
21 | CC(C)n1cnc(S(=O)(=O)N2CCC(C(=O)Nc3ccc(S(N)(=O)=O)cc3)CC2)c1 [Compound 513] | 4120 ± 1810
22 | CCOc1ccc2nc(NC(=O)C3CCN(S(=O)(=O)c4cn(CC)cn4)CC3)sc2c1 [Compound 562] | 3500 ± 470
23 | Cc1ccc(NC(=O)C2CCN(S(=O)(=O)c3cn(C(C)C)cn3)CC2)cc1N(C)C [Compound 526] | 2790 ± 720
24 | CCc1cccc(NC(=O)C2CCN(S(=O)(=O)c3cn(C(C)C)cn3)CC2)c1 [Compound 511] | 2550 ± 790
25 | COc1ccc(NC(=O)CN(C)S(=O)(=O)c2cc(Br)cnc2N)cc1OC [Compound 502] | 840 ± 130
26 | CC(C)c1ccc(NC(=O)CN(C)S(=O)(=O)c2cc(Br)cnc2N)cc1 [Compound 505] | 840 ± 110
27 | Cc1ccc(NC(=O)C2CCN(S(=O)(=O)c3cn(C(C)C)cn3)CC2)cc1C [Compound 510] | 2450 ± 210
28 | CCCN(C(=O)c1ccc(COC)o1)c1nc2c(s1)CCc1c-2cnn1C [Compound 1102] | 3160 ± 430
29 | Cc1ccc2cc(CNc3ccc(O)cc3)c(O)nc2c1 [Compound 805] | 1640 ± 140
30 | CCc1ccc2nc(O)c(CNc3ccc(N(C)C)cc3)cc2c1 [Compound 806] | 4730 ± 910
31 | CC(C)n1cnc(S(=O)(=O)N2CCC(C(=O)NC3CC3)CC2)c1 [Compound 559] | 2990 ± 1390
32 | CC(C)n1cnc(S(=O)(=O)N2CCC(C(=O)Nc3ccccc3F)CC2)c1 [Compound 524] | 2670 ± 650
33 | CN(C(=O)c1ccc(Cn2cccn2)o1)c1nc2c(s1)CCc1c-2cnn1C [Compound 1105] | 3640 ± 510
34 | CCn1cnc(S(=O)(=O)N2CCC(C(=O)Nc3ccc4c(c3)OCCO4)CC2)c1 [Compound 545] | 2690 ± 560
35 | CC(C)n1cnc(S(=O)(=O)N2CCC(C(=O)Nc3ccc(Br)cc3F)CC2)c1 [Compound 538] | 2540 ± 570
36 | CCn1cnc(S(=O)(=O)N2CCC(C(=O)NCCc3nc4cc(C)ccc4[nH]3)CC2)c1 [Compound 566] | 3910 ± 790
37 | CC(C)n1cnc(S(=O)(=O)N2CCC(C(=O)Nc3ccc4c(c3)OCCO4)CC2)c1 [Compound 523] | 1600 ± 480
38 | COCCN(C(=O)c1nsc(Cl)c1Cl)c1nc2c(s1)CCc1c-2cnn1C [Compound 1104] | 2240 ± 260

Row | Compound | IC50 [nM]
39 | Cn1c(=O)nc2[nH]nc(/C=C/c3ccccc3)nc-2c1=O [Compound 622] | 2160 ± 260
40 | COc1ccc(CCNC(=O)C2CCN(S(=O)(=O)c3cn(C(C)C)cn3)CC2)cc1OC [Compound 564] | 2220 ± 520
41 | CCOc1ccc2nc(O)c(CNc3ccc4[nH]ncc4c3)cc2c1 [Compound 807] | 4540 ± 770
42 | COCCN(C(=O)c1cccs1)c1nc2c(s1)CCc1c-2cnn1C [Compound 1101] | 1620 ± 240
43 | Oc1ccc(NCc2cc3cc4c(cc3nc2O)OCO4)cc1 [Compound 804] | 4670 ± 570
44 | CC(C)n1cnc(S(=O)(=O)N2CCC(C(=O)NCc3ccc(Br)cc3)CC2)c1 [Compound 555] | 3200 ± 1050
45 | CC(C)n1cnc(S(=O)(=O)N2CCC(C(=O)Nc3ccccc3)CC2)c1 [Compound 507] | 2770 ± 690
46 | CCn1cnc(S(=O)(=O)N2CCC(C(=O)Nc3ccc(C)c(Cl)c3)CC2)c1 [Compound 544] | 4550 ± 1270
47 | CCn1cnc(S(=O)(=O)N2CCC(C(=O)Nc3cccc(-c4ccno4)c3)CC2)c1 [Compound 553] | 2680 ± 990
48 | COc1ccc2cc(CNc3ccc(O)cc3)c(O)nc2c1 [Compound 801] | 2250 ± 160
49 | CCOc1ccc(CNC(=O)C2CCN(S(=O)(=O)c3cn(C(C)C)cn3)CC2)cc1OC [Compound 561] | 3020 ± 1780
50 | CN(C(=O)Cc1cccs1)c1nc2c(s1)CCc1c-2cnn1C [Compound 1103] | 2890 ± 460
51 | CC(C)n1cnc(S(=O)(=O)N2CCC(C(=O)Nc3cccc(Cl)c3)CC2)c1 [Compound 518] | 3830 ± 780
52 | CC(C)Oc1ccc(CNC(=O)C2CCN(S(=O)(=O)c3cn(C(C)C)cn3)CC2)cc1 [Compound 560] | 3860 ± 900
53 | COc1ccc(NC(=O)C2CCN(S(=O)(=O)c3cn(C(C)C)cn3)CC2)cc1OC [Compound 528] | 1830 ± 140
54 | COc1ccc(NC(=O)C2CCN(S(=O)(=O)c3cn(C(C)C)cn3)CC2)cc1Cl [Compound 534] | 1690 ± 380
55 | CC(C)n1cnc(S(=O)(=O)N2CCC(C(=O)Nc3cccc(-c4ccno4)c3)CC2)c1 [Compound 535] | 2120 ± 210
56 | Oc1ccc(NCc2cc3ccccc3nc2O)cc1 [Compound 803] | 1620 ± 180
57 | CC(C)n1cnc(S(=O)(=O)N2CCC(C(=O)Nc3ccc(Cl)cc3)CC2)c1 [Compound 522] | 2940 ± 720
58 | CC(C)n1cnc(S(=O)(=O)N2CCC(C(=O)NCc3ccc(Cl)cc3)CC2)c1 [Compound 556] | 3750 ± 1010
59 | CC(C)n1cnc(S(=O)(=O)N2CCC(C(=O)Nc3cccc(F)c3)CC2)c1 [Compound 517] | 3610 ± 980
60 | Cc1ccc(CNC(=O)CN(C)S(=O)(=O)c2cc(Br)cnc2N)cc1 [Compound 506] | 3310 ± 490

Row | Compound | IC50 [nM]
61 | Cc1ccc2nc(NC(=O)C3CCN(S(=O)(=O)c4cn(C(C)C)cn4)CC3)sc2c1 [Compound 542] | 5060 ± 1090
62 | CCn1cnc(S(=O)(=O)N2CCC(C(=O)Nc3ccc(OC)cc3)CC2)c1 [Compound 541] | 3310 ± 1220
63 | Cc1ccc(NC(=O)C2CCN(S(=O)(=O)c3cn(C(C)C)cn3)CC2)cc1Cl [Compound 533] | 2640 ± 190
64 | CCc1ccc(NC(=O)C2CCN(S(=O)(=O)c3cn(C(C)C)cn3)CC2)cc1 [Compound 512] | 2900 ± 710
65 | CCOC(=O)c1ccc(NC(=O)C2CCN(S(=O)(=O)c3cn(C(C)C)cn3)CC2)cc1 [Compound 525] | 2440 ± 580
66 | CCn1cnc(S(=O)(=O)N2CCC(C(=O)Nc3nc4ccc(OC)cc4s3)CC2)c1 [Compound 563] | 3020 ± 870
67 | CC(C)n1cnc(S(=O)(=O)N2CCC(C(=O)Nc3ccc(F)c(Cl)c3)CC2)c1 [Compound 527] | 3130 ± 790
68 | CCOc1ccc2nc(NC(=O)C3CCN(S(=O)(=O)c4cn(C(C)C)cn4)CC3)sc2c1 [Compound 550] | 2130 ± 240
69 | COc1ccc(NC(=O)C2CCN(S(=O)(=O)c3cn(C(C)C)cn3)CC2)c(OC)c1 [Compound 537] | 3400 ± 1600
70 | COc1ccc(CNC(=O)C2CCN(S(=O)(=O)c3cn(C(C)C)cn3)CC2)cc1 [Compound 558] | 3330 ± 800
71 | CCSc1nnc(NC(=O)C2CCN(S(=O)(=O)c3cn(CC)cn3)CC2)s1 [Compound 565] | 3060 ± 470
72 | CSc1cccc(NC(=O)C2CCN(S(=O)(=O)c3cn(C(C)C)cn3)CC2)c1 [Compound 515] | 4810 ± 840
73 | CCn1cnc(S(=O)(=O)N2CCC(C(=O)Nc3ccc(OC)c(Cl)c3)CC2)c1 [Compound 548] | 2350 ± 520
74 | COC1CCCC(C(=O)N(CC2CCCO2)c2nc3c(s2)CCc2c-3cnn2C)C1 (stereo not shown) [Compound 1107] | 3220 ± 500
75 | COc1ccc2nc(NC(=O)C3CCN(S(=O)(=O)c4cn(C(C)C)cn4)CC3)sc2c1 [Compound 551] | 2280 ± 110
76 | Cc1cc(NC(=O)C2CCN(S(=O)(=O)c3cn(C(C)C)cn3)CC2)ccc1Br [Compound 531] | 4110 ± 1590
77 | CCOc1ccc2cc(CNc3ccc(O)cc3)c(O)nc2c1 [Compound 802] | 3340 ± 260
78 | COc1ccc(NC(=O)C2CCN(S(=O)(=O)c3cn(C(C)C)cn3)CC2)cc1 [Compound 521] | 2310 ± 360
79 | Cc1ccc(C)c(NC(=O)C2CCN(S(=O)(=O)c3cn(C(C)C)cn3)CC2)c1 [Compound 529] | 3920 ± 2470
80 | CCN(C(=O)C1CCCO1)c1nc2c(s1)CCc1c-2cnn1C (stereo not shown) [Compound 1108] | 3760 ± 190
81 | CCOc1ccccc1CNC(=O)C1CCN(S(=O)(=O)c2cn(C(C)C)cn2)CC1 [Compound 554] | 3420 ± 880
82 | CC(C)n1cnc(S(=O)(=O)N2CCC(C(=O)Nc3cccc(Br)c3)CC2)c1 [Compound 519] | 2760 ± 590
